# Experimental data published in publication PMC11149917, “Translational and Therapeutic Evaluation of RAS-GTP Inhibition by RMC-6236 in RAS-Driven Cancers” (Cancer Discovery, 2024).
# Values joined by “and” are separate entries in the source; they are usually repeats but may differ in a detail not shown here. Equal values may be shown once. Read-outs that look alike come from different tables or passages of the source.
# Tests used:
# [1] = tested on: DUSP6 mRNA in Capan-2 xenograft tumors; experiment: In vivo PD by DUSP6 qPCR and PK/PD relationship; parameters: species or system mouse; settings: for inhibition at 25 mg/kg: single oral dose 25 mg/kg
# Method: (§1) Tumor-bearing animals were randomized and assigned into groups (n = 1–10/group). The vehicle at 10 mL/kg or RMC-6236 at indicated doses was administered via oral gavage daily, and animals were treated for 28 days, or up to 90 days if PFS was being assessed. […] For single-dose PKPD study, mice were randomized and assigned into groups (n = 3/dose/time point). A single dose of RMC-6236 was administered orally at either 3, 10, or 25 mg/kg. Blood and tissues, including the tumor, brain, colon, ear skin, and muscle, were harvested at indicated time points. Whole blood was collected in K2EDTA Microtainer tubes, incubated for 5 minutes, and snap-frozen in liquid nitrogen. The tissue was either fixed in 10% formalin or snap-frozen in liquid nitrogen for further analysis.
# (§2) RNA was extracted from at least 20 mg of tissue using an RNeasy Mini Kit (Qiagen, 74104) and a High-Throughput Tissue grinder following the manufacturer's protocol. Reverse transcription was carried out using High-Capacity cDNA Reverse Transcription Kit (ABI, 4368814) according to the manufacturer's protocol. The cDNA product was used for qPCR analysis using TaqMan Gene-Expression Master Mix (ABI, 4369016). TaqMan primer probes specific to DUSP6 (human—Hs00737962_m1, murine—Mm00518185_m1, FAM-MGB) and 18S (RNA18S1; human—Hs99999901_s1, murine—Mm03928990_g1, FAM-MGB, used as an internal control gene) were used to detect the levels from each sample in duplicates using a 10 µL final reaction volume in a 384-well clear optical reaction plate. For qPCR, Ct values of DUSP6 and 18S were obtained for analysis. DUSP6 Ct value was normalized to 18S, and then the mean relative mRNA expression levels of each group were normalized to the vehicle control group. Values were plotted as relative change in mRNA expression compared with vehicle. Means ± SEM were shown.
# (§3) Concentrations of RMC-6236 in tumor or normal tissues and percentage of DUSP6 inhibition as compared with the vehicle control from individual animals were collected and analyzed post a single dose of RMC-6236 ranging from 0.3 to 100 mg/kg (Supplementary Table S6). A 3-parameter sigmoidal exposure–response model was fitted to the data in GraphPad Prism to derive EC50 and EC90 values.
# [2] = tested on: DUSP6 mRNA in KP-4 xenograft tumors; experiment: In vivo PD by DUSP6 qPCR and PK/PD relationship; parameters: species or system mouse
# Method: as §1, §2, §3
compound,measurement,setting,value
CCn1c(-c2cc(N3CCN(C)CC3)cnc2[C@H](C)OC)c2c3cc(ccc31)-c1csc(n1)C[C@H](NC(=O)[C@H]1C[C@@H]1C)C(=O)N1CCC[C@H](N1)C(=O)OCC(C)(C)C2 [RMC-6236],% inhibition of DUSP6 vs control,"[1]; Capan-2, study Capan-2 #3_PHA 2023, 50 mg/kg, 24h",99.0809% and 99.0285% and 99.0385%
same,% inhibition of DUSP6 vs control,"[1]; Capan-2, study Capan-2 #3_PHA 2023, 50 mg/kg, 48h",95.4581% and 92.3614% and 98.0435%
same,% inhibition of DUSP6 vs control,"[1]; Capan-2, study Capan-2 #3_PHA 2023, 100 mg/kg, 2h",98.9837% and 95.8781% and 93.4418%
same,% inhibition of DUSP6 vs control,"[1]; Capan-2, study Capan-2 #3_PHA 2023, 100 mg/kg, 4h",98.7746% and 99.0452% and 98.9369%
same,% inhibition of DUSP6 vs control,"[1]; Capan-2, study Capan-2 #3_PHA 2023, 100 mg/kg, 8h",99.0419% and 99.2026%
same,% inhibition of DUSP6 vs control,"[1]; Capan-2, study Capan-2 #3_PHA 2023, 100 mg/kg, 24h",99.1943% and 99.2814% and 99.0809%
same,% inhibition of DUSP6 vs control,"[1]; Capan-2, study Capan-2 #3_PHA 2023, 100 mg/kg, 48h",98.7617% and 95.9908% and 98.9515%
same,inhibition at 10 mg/kg,"[1]; Mus musculus, Capan-2, single oral dose 10 mg/kg, 8 hours after dose, read-out: inhibition of tumor DUSP6 levels (relative to vehicle control)",> 95%
same,inhibition at 25 mg/kg,"[1]; Mus musculus, Capan-2, 8 hours after dose, read-out: inhibition of tumor DUSP6 levels (relative to vehicle control)",> 95%
same,inhibition at 25 mg/kg,"[1]; Mus musculus, Capan-2, up to 24 hours after dose, read-out: inhibition of tumor DUSP6 levels (relative to vehicle control)",> 90%
same,EC50,"[1]; Mus musculus, Capan-2 xenograft tumors, read-out: EC50, inhibition of DUSP6 expression vs RMC-6236 concentration (PK/PD relationship)",90 nM
same,EC90,"[1]; Mus musculus, Capan-2 xenograft tumors, read-out: EC90, inhibition of DUSP6 expression vs RMC-6236 concentration (PK/PD relationship)",809 nM
same,DUSP6 mRNA(% normalized to control),"[2]; KP-4 (25 mg/kg x 31d), 8h",3.6%
same,DUSP6 mRNA(% normalized to control),"[2]; KP-4 (25 mg/kg x 31d), 24h",36.2%
same,DUSP6 mRNA(% normalized to control),"[2]; KP-4 (25 mg/kg), 2h",115.7%
same,DUSP6 mRNA(% normalized to control),"[2]; KP-4 (25 mg/kg), 4h",18.9%
same,DUSP6 mRNA(% normalized to control),"[2]; KP-4 (25 mg/kg), 8h",10.7%
same,DUSP6 mRNA(% normalized to control),"[2]; KP-4 (25 mg/kg), 12h",4.3%
same,DUSP6 mRNA(% normalized to control),"[2]; KP-4 (25 mg/kg), 24h",37.1%
same,DUSP6 mRNA(% normalized to control),"[2]; KP-4 (25 mg/kg), 48h",48.3%
same,% inhibition of DUSP6 vs control,"[2]; KP-4, study KP-4 #3, 25 mg/kg, 4h",83.13% and 97.7% and 98.74%
same,% inhibition of DUSP6 vs control,"[2]; KP-4, study KP-4 #3, 25 mg/kg, 8h",99.27% and 98.8% and 98.46%
same,% inhibition of DUSP6 vs control,"[2]; KP-4, study KP-4 #3, 25 mg/kg, 24h",84.47% and 92.71% and 89.79%
same,% inhibition of DUSP6 vs control,"[2]; KP-4, study KP-4 #3, 50 mg/kg, 4h",99.82% and 89.5% and 98.09%
same,% inhibition of DUSP6 vs control,"[2]; KP-4, study KP-4 #3, 50 mg/kg, 8h",99.77% and 99.81% and 99.62%
same,% inhibition of DUSP6 vs control,"[2]; KP-4, study KP-4 #3, 50 mg/kg, 24h",96.99% and 96.44% and 98.05%
same,% inhibition of DUSP6 vs control,"[2]; KP-4, study KP-4 #3, 50 mg/kg, 48h",83.3% and 81.21% and 85.91%
same,% inhibition of DUSP6 vs control,"[2]; KP-4, study KP-4 #4, 25 mg/kg, 8h",95.62% and 96.57% and 90.57%
same,% inhibition of DUSP6 vs control,"[2]; KP-4, study KP-4 #4, 25 mg/kg, 24h",87.48% and 87.9% and 94.68%
same,% inhibition of DUSP6 vs control,"[2]; KP-4, study KP-4 #4, 40 mg/kg, 8h",96.06% and 97.31% and 95.84%
same,% inhibition of DUSP6 vs control,"[2]; KP-4, study KP-4 #4, 40 mg/kg, 24h",75.38% and 93.78% and 96.21%
same,% inhibition of DUSP6 vs control,"[2]; KP-4, study KP-4 #4, 100 mg/kg, 8h",99.67% and 97.58% and 99.05%
same,% inhibition of DUSP6 vs control,"[2]; KP-4, study KP-4 #4, 100 mg/kg, 24h",98.22% and 98.9% and 97.78%
same,% inhibition of DUSP6 vs control,"[2]; KP-4, study KP-4 #4, 100 mg/kg, 48h",68.4% and 89.83% and 80.41%
same,% inhibition of DUSP6 vs control,"[2]; KP-4, study KP-4 #5, 25 mg/kg, 4h",96.1077% and 90.078% and 87.6997%
same,% inhibition of DUSP6 vs control,"[2]; KP-4, study KP-4 #5, 25 mg/kg, 8h",91.9687% and 92.3226% and 98.2581%
same,% inhibition of DUSP6 vs control,"[2]; KP-4, study KP-4 #5, 25 mg/kg, 24h",65.5692% and 78.5839% and 66.1607%
same,% inhibition of DUSP6 vs control,"[2]; KP-4, study KP-4 #6, 3 mg/kg, 8h",59.13% and 61.2% and 53.53%
same,% inhibition of DUSP6 vs control,"[2]; KP-4, study KP-4 #6, 3 mg/kg, 24h",48.26% and 46.44% and 45.31%
same,% inhibition of DUSP6 vs control,"[2]; KP-4, study KP-4 #6, 3 mg/kg, 48h",0% and 3.79%
same,% inhibition of DUSP6 vs control,"[2]; KP-4, study KP-4 #6, 10 mg/kg, 4h",74.13% and 85.85% and 59.13%
same,% inhibition of DUSP6 vs control,"[2]; KP-4, study KP-4 #6, 10 mg/kg, 8h",70.29% and 97.17% and 70.69%
same,% inhibition of DUSP6 vs control,"[2]; KP-4, study KP-4 #6, 10 mg/kg, 48h",8.03% and 13.59% and 9.61%
same,% inhibition of DUSP6 vs control,"[2]; KP-4, study KP-4 #6, 25 mg/kg, 4h",93.33% and 56.04% and 93.99%
same,% inhibition of DUSP6 vs control,"[2]; KP-4, study KP-4 #6, 25 mg/kg, 8h",85.45% and 84.94% and 97.45%
same,% inhibition of DUSP6 vs control,"[2]; KP-4, study KP-4 #6, 25 mg/kg, 12h",93.75% and 94.27% and 98.93%
same,% inhibition of DUSP6 vs control,"[2]; KP-4, study KP-4 #6, 25 mg/kg, 48h",63.92% and 39.53%
same,EC50,"[2]; Mus musculus, KP-4 xenograft tumors, read-out: EC50, inhibition of DUSP6 expression vs RMC-6236 concentration (PK/PD relationship)",454 nM
same,EC90,"[2]; Mus musculus, KP-4 xenograft tumors, read-out: EC90, inhibition of DUSP6 expression vs RMC-6236 concentration (PK/PD relationship)",2890 nM
